Earlier results, collected in patent publication US9668986B2, “Ophthalmic, intra-articular or intravesical preparations containing N-acyl-ethanolamines” (EPITECH GROUP S.R.I., priority 2014, dated 2017).

What was measured:
[1] = target: cannabinoid receptors CB1 (Homo sapiens, UniProt P21554)
CB2 = CB2 (Homo sapiens, UniProt P34972)
Sequence of CB2 (P34972 whole entry, species assumed): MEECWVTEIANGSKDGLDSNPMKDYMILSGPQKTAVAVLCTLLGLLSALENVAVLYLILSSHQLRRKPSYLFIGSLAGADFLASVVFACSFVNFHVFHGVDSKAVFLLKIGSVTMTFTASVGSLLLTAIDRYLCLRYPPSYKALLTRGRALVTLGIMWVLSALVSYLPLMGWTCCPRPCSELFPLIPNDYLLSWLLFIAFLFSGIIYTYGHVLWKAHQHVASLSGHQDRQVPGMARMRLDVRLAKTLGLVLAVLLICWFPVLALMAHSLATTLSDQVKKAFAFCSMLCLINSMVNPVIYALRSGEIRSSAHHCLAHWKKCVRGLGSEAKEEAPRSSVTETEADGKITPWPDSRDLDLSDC

Sequence of cannabinoid receptors CB1 (P21554 whole entry): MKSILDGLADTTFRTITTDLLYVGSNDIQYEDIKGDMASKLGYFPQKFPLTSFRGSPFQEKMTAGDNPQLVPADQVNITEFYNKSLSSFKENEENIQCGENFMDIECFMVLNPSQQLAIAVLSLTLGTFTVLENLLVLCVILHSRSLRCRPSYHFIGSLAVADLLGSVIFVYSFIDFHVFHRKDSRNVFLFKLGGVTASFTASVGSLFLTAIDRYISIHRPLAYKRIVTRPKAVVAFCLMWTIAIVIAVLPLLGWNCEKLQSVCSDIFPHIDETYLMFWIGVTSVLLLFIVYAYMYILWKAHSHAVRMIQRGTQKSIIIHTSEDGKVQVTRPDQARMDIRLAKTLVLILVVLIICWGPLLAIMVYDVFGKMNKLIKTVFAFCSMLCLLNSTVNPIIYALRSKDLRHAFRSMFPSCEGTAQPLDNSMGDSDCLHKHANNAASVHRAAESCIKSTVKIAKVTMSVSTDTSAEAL

CCCCCCCCCCCCCCCC(=O)NCCO [PEA, N-palmitoylethanolamine]
water solubility: not water-soluble
affinity for CB1 [1]: poor affinity
affinity for CB2 (CB2): poor affinity
